No end group written: not given here.

This is an account of results in patent publication US20240138406A1, “ANTIMICROBIAL PEPTIDE SCYAMPCIN44-63 AND APPLICATION THEREOF” (Xiamen University, priority 2021, published 2024).

The experiment relates to Enterobacter cloacae QZ18103. Conditions: QZ18103, 24 h.

Regarding “GKKKKRNMMKTKEPGIIFFF-NH2 [Scyampcin44-63]”, the MBC is 3 to 6 µM.
